Experimental data published in patent US9371363B2, “Peptides and their use” (Novabiotics Limited, priority 2007, dated 2016).
Like-named read-outs stand apart in the source and are kept apart here. Where no end group is shown, it is not given here.

Assays:
Format in all cases: cell-based
P. acnes = system: P. acnes
Protocol: (§1) Broth Dilution Antibacterial Susceptibility Testing
(§2) The sensitivity of relevant bacterial strains to the peptides (was determined using Clinical Laboratory Standard Institute (CLSI; formerly NCCLS) Approved Standards. Bacterial susceptibility was tested using “Methods for Dilution Antimicrobial Susceptibility Tests for Bacteria That Grow […]; Approved Standard—Seventh Edition M7-A7”

S. aureus = system: S. aureus
Protocol: as §1, §2

Ps. aeruginosa = system: Ps. aeruginosa
Protocol: as §1, §2

[1] = Ps. aeruginosa, CLSI broth dilution
[2] = P. acnes, values marked * in mg/ml
[3] = S. aureus, values marked * in mg/ml

| Compound | Minimum Inhibitory Concentration, antimicrobial activity, S. aureus (S. aureus) | further results |
| --- | --- | --- |
| N=C(N)NCCC[C@H](NC(=O)[C@H](CCCNC(=N)N)NC(=O)[C@H](CCCNC(=N)N)NC(=O)[C@H](CCCNC(=N)N)NC(=O)[C@H](CCCNC(=N)N)NC(=O)[C@H](CCCNC(=N)N)NC(=O)[C@H](CCCNC(=N)N)NC(=O)[C@H](CCCNC(=N)N)NC(=O)[C@@H](N)CCCNC(=N)N)C(=O)O [NP316, RRRRRRRRR (SEQ ID NO: 12)] | – | Minimum Inhibitory Concentration, antimicrobial activity, P. acnes (P. acnes; P. acnes, CLSI broth dilution): 0.0313 mM |
| N=C(N)NCCC[C@H](NC(=O)[C@H](CCCNC(=N)N)NC(=O)[C@H](CCCNC(=N)N)NC(=O)[C@H](CCCNC(=N)N)NC(=O)[C@H](CCCNC(=N)N)NC(=O)[C@H](CCCNC(=N)N)NC(=O)[C@H](CCCNC(=N)N)NC(=O)[C@H](CCCNC(=N)N)NC(=O)[C@H](CCCNC(=N)N)NC(=O)[C@H](CCCNC(=N)N)NC(=O)[C@@H](N)CCCNC(=N)N)C(=O)O [NP317, RRRRRRRRRRR (SEQ ID NO: 13)] | 0.25 mM | – |
| N=C(N)NCCC[C@H](NC(=O)[C@H](CCCNC(=N)N)NC(=O)[C@H](CCCNC(=N)N)NC(=O)[C@H](CCCNC(=N)N)NC(=O)[C@H](CCCNC(=N)N)NC(=O)[C@H](CCCNC(=N)N)NC(=O)[C@H](CCCNC(=N)N)NC(=O)[C@H](CCCNC(=N)N)NC(=O)[C@H](CCCNC(=N)N)NC(=O)[C@H](CCCNC(=N)N)NC(=O)[C@H](CCCNC(=N)N)NC(=O)[C@H](CCCNC(=N)N)NC(=O)[C@@H](N)CCCNC(=N)N)C(=O)O [NP318, RRRRRRRRRRRRR (SEQ ID NO: 14)] | 0.125 mM | Minimum Inhibitory Concentration, antimicrobial activity, P. acnes (P. acnes): <0.0156 mM |
| N=C(N)NCCC[C@H](NC(=O)[C@H](CCCNC(=N)N)NC(=O)[C@H](CCCNC(=N)N)NC(=O)[C@H](CCCNC(=N)N)NC(=O)[C@H](CCCNC(=N)N)NC(=O)[C@H](CCCNC(=N)N)NC(=O)[C@H](CCCNC(=N)N)NC(=O)[C@H](CCCNC(=N)N)NC(=O)[C@H](CCCNC(=N)N)NC(=O)[C@H](CCCNC(=N)N)NC(=O)[C@H](CCCNC(=N)N)NC(=O)[C@H](CCCNC(=N)N)NC(=O)[C@@H](N)CCCNC(=N)N)C(=O)O [NP337, RRRRRRRRRRRRR (SEQ ID NO: 31)] | – | Minimum Inhibitory Concentration, antimicrobial activity, P. acnes (P. acnes): 0.0025 mM |
| CC(=O)N[C@@H](CCCNC(=N)N)C(=O)N[C@@H](CCCNC(=N)N)C(=O)N[C@@H](CCCNC(=N)N)C(=O)N[C@@H](CCCNC(=N)N)C(=O)N[C@@H](CCCNC(=N)N)C(=O)N[C@@H](CCCNC(=N)N)C(=O)N[C@@H](CCCNC(=N)N)C(=O)N[C@@H](CCCNC(=N)N)C(=O)N[C@@H](CCCNC(=N)N)C(=O)N[C@@H](CCCNC(=N)N)C(=O)N[C@@H](CCCNC(=N)N)C(=O)N[C@@H](CCCNC(=N)N)C(=O)N[C@@H](CCCNC(=N)N)C(N)=O [NP338] | – | Minimum Inhibitory Concentration, antimicrobial activity, P. acnes (P. acnes): 0.005 mM; Minimum Inhibitory Concentration, antimicrobial activity, Ps. aeruginosa (Ps. aeruginosa; [1]): 0.0625 mM |
| N=C(N)NCCC[C@@H](N)C(=O)N[C@H](CCCNC(=N)N)C(=O)N[C@H](CCCNC(=N)N)C(=O)N[C@H](CCCNC(=N)N)C(=O)N[C@H](CCCNC(=N)N)C(=O)N[C@H](CCCNC(=N)N)C(=O)N[C@H](CCCNC(=N)N)C(=O)N[C@H](CCCNC(=N)N)C(=O)N[C@H](CCCNC(=N)N)C(=O)N[C@H](CCCNC(=N)N)C(=O)N[C@H](CCCNC(=N)N)C(=O)N[C@H](CCCNC(=N)N)C(=O)N[C@H](CCCNC(=N)N)C(=O)O [NP339, dRdRdRdRdRdRdRdRdRdRdRdRdR (SEQ ID NO: 31)] | 0.25 mM | Minimum Inhibitory Concentration, antimicrobial activity, P. acnes (P. acnes): 0.02 mM; Minimum Inhibitory Concentration, antimicrobial activity, Ps. aeruginosa (Ps. aeruginosa; [1]): 0.0625 mM |
| CC(=O)N[C@H](CCCNC(=N)N)C(=O)N[C@H](CCCNC(=N)N)C(=O)N[C@H](CCCNC(=N)N)C(=O)N[C@H](CCCNC(=N)N)C(=O)N[C@H](CCCNC(=N)N)C(=O)N[C@H](CCCNC(=N)N)C(=O)N[C@H](CCCNC(=N)N)C(=O)N[C@H](CCCNC(=N)N)C(=O)N[C@H](CCCNC(=N)N)C(=O)N[C@H](CCCNC(=N)N)C(=O)N[C@H](CCCNC(=N)N)C(=O)N[C@H](CCCNC(=N)N)C(=O)N[C@H](CCCNC(=N)N)C(N)=O [NP340, Ac-dRdRdRdRdRdRdRdRdRdRdRdRdR—NH2 (SEQ ID NO: 31)] | 0.25 mM | Minimum Inhibitory Concentration, antimicrobial activity, P. acnes (P. acnes): 0.02 mM; Minimum Inhibitory Concentration, antimicrobial activity, Ps. aeruginosa (Ps. aeruginosa; [1]): 0.125 mM |
| N=C(N)NCCC[C@@H](N)C(=O)N[C@H](CCCNC(=N)N)C(=O)N[C@H](CCCNC(=N)N)C(=O)N[C@H](CCCNC(=N)N)C(=O)N[C@H](CCCNC(=N)N)C(=O)N[C@H](CCCNC(=N)N)C(=O)N[C@H](CCCNC(=N)N)C(=O)N[C@H](CCCNC(=N)N)C(=O)N[C@H](CCCNC(=N)N)C(=O)N[C@H](CCCNC(=N)N)C(=O)N[C@H](CCCNC(=N)N)C(=O)N[C@H](CCCNC(=N)N)C(=O)N[C@H](CCCNC(=N)N)C(N)=O [NP341, dRdRdRdRdRdRdRdRdRdRdRdRdR—CONH (SEQ ID NO: 31)] | 0.125 mM | – |
| N=C(N)NCCC[C@H](NC(=O)[C@H](CCCNC(=N)N)NC(=O)[C@H](CCCNC(=N)N)NC(=O)[C@H](CCCNC(=N)N)NC(=O)[C@H](CCCNC(=N)N)NC(=O)[C@H](CCCNC(=N)N)NC(=O)[C@H](CCCNC(=N)N)NC(=O)[C@H](CCCNC(=N)N)NC(=O)[C@H](CCCNC(=N)N)NC(=O)[C@H](CCCNC(=N)N)NC(=O)[C@@H](N)CCCNC(=N)N)C(=O)O [NP350, RRRRRRRRRRR (SEQ ID NO: 13)] | – | Minimum Inhibitory Concentration, antimicrobial activity, Ps. aeruginosa (Ps. aeruginosa): 0.125 mM |
| N=C(N)NCCC[C@H](NC(=O)[C@H](CCCNC(=N)N)NC(=O)[C@H](CCCNC(=N)N)NC(=O)[C@H](CCCNC(=N)N)NC(=O)[C@H](CCCNC(=N)N)NC(=O)[C@H](CCCNC(=N)N)NC(=O)[C@H](CCCNC(=N)N)NC(=O)[C@H](CCCNC(=N)N)NC(=O)[C@H](CCCNC(=N)N)NC(=O)[C@H](CCCNC(=N)N)NC(=O)[C@H](CCCNC(=N)N)NC(=O)[C@H](CCCNC(=N)N)NC(=O)[C@@H](N)CCCNC(=N)N)C(=O)O [NP351, RRRRRRRRRRRRR (SEQ ID NO: 14)] | – | Minimum Inhibitory Concentration, antimicrobial activity, Ps. aeruginosa (Ps. aeruginosa; [1]): 0.125 mM |
| (H)n, n = 32-161 [NP131] | – | Minimum Inhibitory Concentration, antimicrobial activity, P. acnes (P. acnes; [2]): >0.1* mg/ml; Minimum Inhibitory Concentration, antimicrobial activity, S. aureus (S. aureus; [3]): >2* mg/ml |
| (H)n, n = >32 [NP132] | – | Minimum Inhibitory Concentration, antimicrobial activity, P. acnes (P. acnes; [2]): 0.1* mg/ml |
| (K)n, n = 3-14 [NP112] | – | Minimum Inhibitory Concentration, antimicrobial activity, P. acnes (P. acnes; [2]): 0.1* mg/ml |
| (K)n, n = 7-34 [NP106] | – | Minimum Inhibitory Concentration, antimicrobial activity, P. acnes (P. acnes; [2]): 0.125* mg/ml |
| (K)n, n = 103-205 [NP101] | – | Minimum Inhibitory Concentration, antimicrobial activity, P. acnes (P. acnes; [2]): 0.1* mg/ml; Minimum Inhibitory Concentration, antimicrobial activity, Ps. aeruginosa (Ps. aeruginosa; Ps. aeruginosa, values marked * in mg/ml): 0.125* mg/ml; Minimum Inhibitory Concentration, antimicrobial activity, S. aureus (S. aureus; [3]): <0.0313* mg/ml |
| (R)n, n = 86-402 [NP122] | – | Minimum Inhibitory Concentration, antimicrobial activity, P. acnes (P. acnes; [2]): 0.01* mg/ml |
| (R)n, n = >402 [NP123] | – | Minimum Inhibitory Concentration, antimicrobial activity, P. acnes (P. acnes; [2]): 0.01* mg/ml |
| GKKEKPEKKVKK [NP331, GKKEKPEKKVKK (SEQ ID NO: 25)] | >2 mM | – |
| KKKDKVKK [NP334, KKKDKVKK (SEQ ID NO: 28)] | >2 mM | – |
| KKKKKEGKKQEKMLD [NP333] | >2 mM | – |
| KKKKKKKKK [NP345, KKKKKKKKK (SEQ ID NO: 33)] | – | Minimum Inhibitory Concentration, antimicrobial activity, P. acnes (P. acnes): 2.5 mM |
| KKKKKKKKKKKKKKK [NP348] | – | Minimum Inhibitory Concentration, antimicrobial activity, P. acnes (P. acnes; P. acnes, CLSI broth dilution): 0.0625 mM; Minimum Inhibitory Concentration, antimicrobial activity, S. aureus (S. aureus; S. aureus, CLSI broth dilution): 0.25 mM |

| Compound | Minimum Inhibitory Concentration, antimicrobial activity, S. aureus (S. aureus) | further results |
| --- | --- | --- |
| KLTKPKPQAESKKKKK [NP332] | >2 mM | – |
| KVRQGTLKKAR [NP335, KVRQGTLKKAR (SEQ ID NO: 29)] | >2 mM | – |
| PKTKAKAKAKKGKGKD [NP336] | >2 mM | – |
| RRRRVVRRRR [NP310, RRRRVVRRRR (SEQ ID NO: 10)] | >2 mM | Minimum Inhibitory Concentration, antimicrobial activity, P. acnes (P. acnes): 0.5 mM |
| RRRVRRR [NP306, RRRVRRR (SEQ ID NO: 6)] | >2 mM | – |
| RRRVVRRR [NP308, RRRVVRRR (SEQ ID NO: 8)] | >2 mM | – |
| RRRWRRR [NP325, RRRWRRR (SEQ ID NO: 21)] | >2 mM | – |
| RRVRR [NP303, RRVRR (SEQ ID NO: 3)] | >2 mM | – |
| RRVRRVRR [NP309, RRVRRVRR (SEQ ID NO: 9)] | – | Minimum Inhibitory Concentration, antimicrobial activity, P. acnes (P. acnes): 1 mM |
| RRVRVR [NP304, RRVRVR (SEQ ID NO: 4)] | >2 mM | – |
| RRVRVRR [NP307, RRVRVRR (SEQ ID NO: 7)] | >2 mM | – |
| RRVVR [NP302, RRVVR (SEQ ID NO: 2)] | >2 mM | – |
| RRVVRR [NP305, RRVVRR (SEQ ID NO: 5)] | >2 mM | – |
| RRVVRRVVRR [NP311, RRVVRRVVRR (SEQ ID NO: 11)] | >2 mM | Minimum Inhibitory Concentration, antimicrobial activity, P. acnes (P. acnes): 2 mM |
| RRWRR [NP322, RRWRR (SEQ ID NO: 18)] | >2 mM | – |
| RRWRRWRR [NP328, RRWRRWRR (SEQ ID NO: 24)] | >2 mM | – |
| RRWRWR [NP323, RRWRWR (SEQ ID NO: 19)] | >2 mM | – |
| RRWRWRR [NP326, RRWRWRR (SEQ ID NO: 22)] | >2 mM | – |
| RRWWR [NP321, RRWWR (SEQ ID NO: 17)] | >2 mM | – |
| RRWWRR [NP324, RRWWRR (SEQ ID NO: 20)] | 1 mM | – |
| RVRVR [NP301, RVRVR (SEQ ID NO: 1)] | >2 mM | – |
| RWRWR [NP320, RWRWR (SEQ ID NO: 16)] | >2 mM | – |
